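Compound exposure: 48 hours, 5 concentrations, 96-well plates. GI50 = concentration required for 50% inhibition of growth. TGI: total growth inhibition.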
Experiments:
Assay in all cases: NCI tumour cell line growth inhibition, 48 h
[1] = system: 786-0 renal
[2] = system: A498 renal
[3] = system: A549 NSCLC
[4] = system: ACHN renal
[5] = system: BT-549 breast
[6] = system: CAKI-1 renal
[7] = system: CCRF-CEM leukemia
[8] = system: COLO 205 colon
[9] = system: DU-145 prostate
[10] = system: HCC-2998 colon
[11] = system: HCT-116 colon
[12] = system: HCT-15 colon
[13] = system: HL-60(TB) leukemia
[14] = system: HOP-62 NSCLC
[15] = system: HOP-92 NSCLC
[16] = system: HS 578T breast
[17] = system: HT29 colon
[18] = system: IGROV1 ovarian
[19] = system: K-562 leukemia
[20] = system: KM12 colon
[21] = system: LOX IMVI melanoma
[22] = system: M14 melanoma
[23] = system: MALME-3M melanoma
[24] = system: MCF7 breast
[25] = system: MDA-MB-231 breast
[26] = system: MDA-MB-435
[27] = system: MOLT-4 leukemia
[28] = system: NCI-H226 lung
[29] = system: NCI-H23 lung
[30] = system: NCI-H460 lung
[31] = system: NCI-H522 lung
[32] = system: NCI/ADR-RES ovarian
[33] = system: OVCAR-3 ovarian
[34] = system: OVCAR-4 ovarian
[35] = system: OVCAR-5 ovarian
[36] = system: OVCAR-8 ovarian
[37] = system: PC-3 prostate
[38] = system: RPMI-8226 leukemia
[39] = system: RXF 393 renal
[40] = system: SF-268 CNS
[41] = system: SF-295 CNS
[42] = system: SF-539 CNS
[43] = system: SK-MEL-2 melanoma
[44] = system: SK-MEL-28 melanoma
[45] = system: SK-MEL-5 melanoma
[46] = system: SK-OV-3 ovarian
[47] = system: SN12C renal
[48] = system: SNB-19 CNS
[49] = system: SNB-75 CNS
[50] = system: SR leukemia
[51] = system: SW-620 colon
[52] = system: T-47D breast
[53] = system: TK-10 renal
[54] = system: U251 CNS
[55] = system: UACC-257 melanoma
[56] = system: UACC-62 melanoma
[57] = system: UO-31 renal
[58] = system: EKVX NSCLC

In the case of `CCCCNNC(=O)c1ccc(Br)cc1`, the GI50 [1] was 11800 nM, the TGI [1] was over 50000 nM and the GI50 [2] was 364 nM. The TGI [2] was 3410 nM, the GI50 [3] was 5340 nM and the TGI [3] was over 50000 nM. For the same molecule, the GI50 [4] was 2670 nM, the TGI [4] was over 36100 nM and the GI50 [5] was 17000 nM. The TGI [5] was over 50000 nM, the GI50 [6] was 2880 nM and the TGI [6] was over 27000 nM. For the same molecule, the GI50 [7] was 2460 nM, the TGI [7] was over 50000 nM and the GI50 [8] was 2210 nM. For the same molecule, the TGI [8] was 9920 nM, the GI50 [9] was 2600 nM and the TGI [9] was over 50000 nM. It also gave a GI50 [10] of 4350 nM, a TGI [10] of 24000 nM and a GI50 [11] of 1470 nM. It also gave a TGI [11] of 13400 nM, a GI50 [12] of 6870 nM and a TGI [12] of over 50000 nM. For the same molecule, the GI50 [13] was 2240 nM, the TGI [13] was over 50000 nM and the GI50 [14] was 2980 nM. It also gave a TGI [14] of over 34200 nM, a GI50 [15] of 1460 nM and a TGI [15] of 11400 nM. The GI50 [16] was 4270 nM, the TGI [16] was over 50000 nM and the GI50 [17] was 1920 nM. The TGI [17] was over 39000 nM, the GI50 [18] was 8350 nM and the TGI [18] was over 50000 nM. It also gave a GI50 [19] of 2020 nM, a TGI [19] of over 50000 nM and a GI50 [20] of 7260 nM. For the same molecule, the TGI [20] was over 50000 nM, the GI50 [21] was 3290 nM and the TGI [21] was 12200 nM. For the same molecule, the GI50 [22] was 2460 nM, the TGI [22] was over 50000 nM and the GI50 [23] was 1700 nM. For the same molecule, the TGI [23] was over 50000 nM, the GI50 [24] was 2060 nM and the TGI [24] was over 50000 nM. For the same molecule, the GI50 [25] was 9030 nM, the TGI [25] was over 50000 nM and the GI50 [26] was 2210 nM. It also gave a TGI [26] of over 50000 nM, a GI50 [27] of 2510 nM and a TGI [27] of over 50000 nM. For the same molecule, the GI50 [28] was 9860 nM, the TGI [28] was over 50000 nM and the GI50 [29] was 6770 nM. For the same molecule, the TGI [29] was over 50000 nM, the GI50 [30] was 2970 nM and the TGI [30] was over 50000 nM. The GI50 [31] was 1270 nM, the TGI [31] was over 22000 nM and the GI50 [32] was 1030 nM. For the same molecule, the TGI [32] was over 37800 nM, the GI50 [33] was 5260 nM and the TGI [33] was over 50000 nM. It also gave a GI50 [34] of 4790 nM, a TGI [34] of over 50000 nM and a GI50 [35] of 1010 nM. It also gave a TGI [35] of over 15300 nM, a GI50 [36] of 1500 nM and a TGI [36] of over 50000 nM. The GI50 [37] was 4120 nM, the TGI [37] was over 50000 nM and the GI50 [38] was 956 nM. The TGI [38] was over 50000 nM, the GI50 [39] was 4530 nM and the TGI [39] was 30400 nM. The GI50 [40] was 8410 nM, the TGI [40] was over 50000 nM and the GI50 [41] was 2540 nM. The TGI [41] was 14700 nM, the GI50 [42] was 1760 nM and the TGI [42] was over 50000 nM. It also gave a GI50 [43] of 1830 nM, a TGI [43] of over 39900 nM and a GI50 [44] of 1550 nM. For the same molecule, the TGI [44] was over 35300 nM, the GI50 [45] was 1940 nM and the TGI [45] was 7770 nM. For the same molecule, the GI50 [46] was 8540 nM, the TGI [46] was over 50000 nM and the GI50 [47] was 15400 nM. For the same molecule, the TGI [47] was over 50000 nM, the GI50 [48] was 11200 nM and the TGI [48] was over 50000 nM. For the same molecule, the GI50 [49] was 1830 nM, the TGI [49] was over 50000 nM and the GI50 [50] was 2760 nM. For the same molecule, the TGI [50] was over 50000 nM, the GI50 [51] was 2170 nM and the TGI [51] was over 50000 nM. The GI50 [52] was 1110 nM, the TGI [52] was 7490 nM and the GI50 [53] was 1310 nM. For the same molecule, the TGI [53] was 12200 nM, the GI50 [54] was 3780 nM and the TGI [54] was 28500 nM. For the same molecule, the GI50 [55] was 639 nM, the TGI [55] was 7340 nM and the GI50 [56] was 1300 nM. The TGI [56] was 7510 nM, the GI50 [57] was 2360 nM and the TGI [57] was over 35100 nM.

`COC(=O)c1c2c(c(C)[n+]([O-])c1C)C(=O)C=C(NCc1ccccc1)C2=O` gave a GI50 [1] of 2330 nM, a TGI [1] of 6880 nM and a GI50 [2] of 1570 nM. For the same molecule, the TGI [2] was 2960 nM, the GI50 [3] was 1100 nM and the TGI [3] was 3460 nM. The GI50 [5] was 1450 nM, the TGI [5] was 2920 nM and the GI50 [6] was 1090 nM. It also gave a TGI [6] of 3100 nM, a GI50 [7] of 668 nM and a TGI [7] of 3710 nM. The GI50 [8] was 274 nM, the TGI [8] was 776 nM and the GI50 [9] was 1350 nM. For the same molecule, the TGI [9] was 2680 nM, the GI50 [58] was 1140 nM and the TGI [58] was 2550 nM. It also gave a GI50 [10] of 432 nM, a TGI [10] of 1700 nM and a GI50 [11] of 303 nM. The TGI [11] was 1050 nM, the GI50 [12] was 426 nM and the TGI [12] was 1800 nM. For the same molecule, the GI50 [13] was 317 nM, the TGI [13] was 1190 nM and the GI50 [14] was 1490 nM. For the same molecule, the TGI [14] was 3190 nM, the GI50 [15] was 2170 nM and the TGI [15] was 4370 nM. For the same molecule, the GI50 [16] was 2190 nM, the TGI [16] was 6880 nM and the GI50 [17] was 384 nM. It also gave a TGI [17] of 2780 nM, a GI50 [18] of 492 nM and a TGI [18] of 1870 nM. The GI50 [19] was 418 nM, the TGI [19] was 3050 nM and the GI50 [20] was 700 nM. For the same molecule, the TGI [20] was 3340 nM, the GI50 [21] was 340 nM and the TGI [21] was 1530 nM. For the same molecule, the GI50 [22] was 550 nM, the TGI [22] was 1870 nM and the GI50 [23] was 147 nM. It also gave a TGI [23] of 353 nM, a GI50 [24] of 260 nM and a TGI [24] of 892 nM. For the same molecule, the GI50 [25] was 326 nM, the TGI [25] was 2680 nM and the GI50 [26] was 202 nM. It also gave a TGI [26] of 391 nM, a GI50 [27] of 619 nM and a TGI [27] of 2830 nM. For the same molecule, the GI50 [28] was 1780 nM, the TGI [28] was 3740 nM and the GI50 [29] was 632 nM. For the same molecule, the TGI [29] was 2460 nM, the GI50 [30] was 872 nM and the TGI [30] was 2730 nM. The GI50 [31] was 1330 nM, the TGI [31] was 3250 nM and the GI50 [32] was 453 nM. It also gave a TGI [32] of 2950 nM, a GI50 [33] of 277 nM and a TGI [33] of 791 nM. The GI50 [34] was 283 nM, the TGI [34] was 1180 nM and the GI50 [35] was 1350 nM. The TGI [35] was 2700 nM, the GI50 [36] was 408 nM and the TGI [36] was 2160 nM. The GI50 [37] was 379 nM, the TGI [37] was 7340 nM and the GI50 [38] was 1360 nM. For the same molecule, the TGI [38] was 4280 nM, the GI50 [39] was 1230 nM and the TGI [39] was 2730 nM. The GI50 [40] was 1510 nM, the TGI [40] was 4470 nM and the GI50 [41] was 1110 nM. It also gave a TGI [41] of 2350 nM, a GI50 [42] of 711 nM and a TGI [42] of 1940 nM. The GI50 [43] was 1250 nM, the TGI [43] was 2820 nM and the GI50 [44] was 1630 nM. It also gave a TGI [44] of 3800 nM, a GI50 [45] of 206 nM and a TGI [45] of 480 nM. For the same molecule, the GI50 [46] was 2030 nM, the TGI [46] was 4180 nM and the GI50 [47] was 356 nM. The TGI [47] was 1390 nM, the GI50 [48] was 1420 nM and the TGI [48] was 2740 nM. The GI50 [49] was 1820 nM, the TGI [49] was 3220 nM and the GI50 [50] was 895 nM. It also gave a TGI [50] of 5660 nM, a GI50 [51] of 375 nM and a TGI [51] of 1540 nM. For the same molecule, the GI50 [52] was 316 nM, the TGI [52] was 1590 nM and the GI50 [53] was 2920 nM. It also gave a TGI [53] of 7190 nM, a GI50 [54] of 1330 nM and a TGI [54] of 3020 nM. For the same molecule, the GI50 [55] was 261 nM, the TGI [55] was 962 nM and the GI50 [56] was 286 nM. For the same molecule, the TGI [56] was 1210 nM, the GI50 [57] was 1350 nM and the TGI [57] was 2650 nM.
